From ChEMBL document CHEMBL3991601, “The target landscape of clinical kinase drugs” (Science, 2017) come the findings set out here.

Each structure is given as a SMILES string. Active and inactive are the calls of the source. Some results are limits rather than exact numbers.

The target in one experiment is T1, ADP/ATP translocase 2 (Homo sapiens, UniProt P05141).
T1 sequence (P05141 whole entry): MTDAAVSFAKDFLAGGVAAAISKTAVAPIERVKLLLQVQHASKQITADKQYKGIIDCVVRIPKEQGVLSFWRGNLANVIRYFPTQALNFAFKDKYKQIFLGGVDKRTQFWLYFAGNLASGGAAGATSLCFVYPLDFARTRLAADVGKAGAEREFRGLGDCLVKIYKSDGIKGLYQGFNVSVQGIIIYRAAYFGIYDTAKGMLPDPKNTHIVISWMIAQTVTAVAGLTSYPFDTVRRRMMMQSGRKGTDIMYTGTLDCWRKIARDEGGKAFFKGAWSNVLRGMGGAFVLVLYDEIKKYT

For experiment [1], the target named is Mitogen-activated protein kinase kinase kinase kinase 5 (Homo sapiens, UniProt Q9Y4K4).
In experiment [2] the target is T2, Very long-chain specific acyl-CoA dehydrogenase, mitochondrial (Homo sapiens, UniProt P49748).
T2 sequence (P49748 whole entry): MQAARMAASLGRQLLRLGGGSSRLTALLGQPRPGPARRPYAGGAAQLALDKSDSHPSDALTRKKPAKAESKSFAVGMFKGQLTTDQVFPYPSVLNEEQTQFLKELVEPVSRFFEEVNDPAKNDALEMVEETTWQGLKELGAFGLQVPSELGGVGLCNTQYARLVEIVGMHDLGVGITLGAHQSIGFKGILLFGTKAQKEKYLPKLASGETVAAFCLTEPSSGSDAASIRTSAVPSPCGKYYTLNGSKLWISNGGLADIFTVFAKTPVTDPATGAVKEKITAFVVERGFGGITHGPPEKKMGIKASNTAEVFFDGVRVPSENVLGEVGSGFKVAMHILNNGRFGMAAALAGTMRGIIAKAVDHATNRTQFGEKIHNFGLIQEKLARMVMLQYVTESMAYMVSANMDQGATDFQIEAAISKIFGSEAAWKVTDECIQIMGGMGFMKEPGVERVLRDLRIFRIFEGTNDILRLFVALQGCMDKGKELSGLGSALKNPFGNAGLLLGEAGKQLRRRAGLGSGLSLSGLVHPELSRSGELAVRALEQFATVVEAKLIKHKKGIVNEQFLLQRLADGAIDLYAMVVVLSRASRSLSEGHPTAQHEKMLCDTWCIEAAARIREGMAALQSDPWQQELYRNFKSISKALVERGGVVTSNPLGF

Experiment [3] addresses AP2-associated protein kinase 1 (Homo sapiens, UniProt Q2M2I8).
In experiment [4] the target is Serine/threonine-protein kinase MRCK alpha (Homo sapiens, UniProt Q5VT25).
Experiment [5] concerns the target Casein kinase I isoform epsilon (Homo sapiens, UniProt P49674).
Experiment [6] addresses T3, Cyclin-G-associated kinase (Homo sapiens, UniProt O14976).
T3 sequence (O14976 whole entry): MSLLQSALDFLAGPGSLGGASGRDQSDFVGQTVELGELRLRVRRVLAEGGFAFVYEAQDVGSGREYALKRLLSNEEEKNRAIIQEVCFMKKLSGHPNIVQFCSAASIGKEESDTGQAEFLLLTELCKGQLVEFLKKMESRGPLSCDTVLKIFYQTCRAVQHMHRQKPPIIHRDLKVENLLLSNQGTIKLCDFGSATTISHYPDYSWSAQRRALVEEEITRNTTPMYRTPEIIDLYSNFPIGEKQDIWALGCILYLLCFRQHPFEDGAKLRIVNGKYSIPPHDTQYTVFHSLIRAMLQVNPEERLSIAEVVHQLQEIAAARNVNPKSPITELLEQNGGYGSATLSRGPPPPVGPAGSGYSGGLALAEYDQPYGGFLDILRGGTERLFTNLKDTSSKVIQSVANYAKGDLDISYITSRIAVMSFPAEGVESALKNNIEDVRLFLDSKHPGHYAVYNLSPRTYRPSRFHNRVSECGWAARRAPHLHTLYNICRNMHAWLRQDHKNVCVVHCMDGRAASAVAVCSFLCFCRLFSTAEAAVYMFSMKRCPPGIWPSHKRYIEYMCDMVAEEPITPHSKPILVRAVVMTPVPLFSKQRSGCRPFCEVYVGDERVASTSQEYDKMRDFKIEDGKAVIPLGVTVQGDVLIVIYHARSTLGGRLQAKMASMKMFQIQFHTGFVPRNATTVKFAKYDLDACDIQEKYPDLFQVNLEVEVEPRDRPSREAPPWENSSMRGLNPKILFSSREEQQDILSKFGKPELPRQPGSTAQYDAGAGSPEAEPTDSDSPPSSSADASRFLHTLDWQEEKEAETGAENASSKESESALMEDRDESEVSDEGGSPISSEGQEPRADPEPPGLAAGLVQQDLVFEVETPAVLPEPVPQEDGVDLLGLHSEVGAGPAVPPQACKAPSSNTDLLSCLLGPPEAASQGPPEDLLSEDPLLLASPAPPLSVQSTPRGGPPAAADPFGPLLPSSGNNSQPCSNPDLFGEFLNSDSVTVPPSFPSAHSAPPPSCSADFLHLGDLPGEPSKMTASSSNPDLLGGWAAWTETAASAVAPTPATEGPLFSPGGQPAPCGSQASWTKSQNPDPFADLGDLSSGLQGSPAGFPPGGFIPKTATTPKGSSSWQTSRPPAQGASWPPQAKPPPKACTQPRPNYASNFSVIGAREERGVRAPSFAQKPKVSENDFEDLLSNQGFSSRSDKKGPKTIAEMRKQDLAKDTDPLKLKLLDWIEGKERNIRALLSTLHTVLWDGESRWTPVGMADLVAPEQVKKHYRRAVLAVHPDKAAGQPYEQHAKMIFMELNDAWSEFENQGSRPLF

Experiment [7] addresses T4, Tyrosine--tRNA ligase, cytoplasmic (Homo sapiens, UniProt P54577).
T4 sequence (P54577 whole entry): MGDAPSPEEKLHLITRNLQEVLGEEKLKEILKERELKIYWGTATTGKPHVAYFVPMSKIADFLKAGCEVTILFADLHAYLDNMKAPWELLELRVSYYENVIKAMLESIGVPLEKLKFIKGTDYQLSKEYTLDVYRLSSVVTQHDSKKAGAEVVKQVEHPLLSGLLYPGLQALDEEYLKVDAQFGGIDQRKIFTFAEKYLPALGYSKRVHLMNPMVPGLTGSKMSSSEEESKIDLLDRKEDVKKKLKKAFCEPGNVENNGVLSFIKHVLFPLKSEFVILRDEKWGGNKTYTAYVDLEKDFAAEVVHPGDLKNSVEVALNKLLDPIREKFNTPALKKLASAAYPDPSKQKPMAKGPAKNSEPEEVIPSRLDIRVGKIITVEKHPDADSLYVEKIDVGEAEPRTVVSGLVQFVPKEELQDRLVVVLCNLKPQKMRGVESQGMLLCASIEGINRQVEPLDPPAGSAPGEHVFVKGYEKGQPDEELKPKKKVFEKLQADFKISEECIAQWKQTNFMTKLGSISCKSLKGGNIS
Note: in the data inactive means no Kd found up to 30 µM.

Chain of AP2-associated protein kinase 1 (Q2M2I8 whole entry): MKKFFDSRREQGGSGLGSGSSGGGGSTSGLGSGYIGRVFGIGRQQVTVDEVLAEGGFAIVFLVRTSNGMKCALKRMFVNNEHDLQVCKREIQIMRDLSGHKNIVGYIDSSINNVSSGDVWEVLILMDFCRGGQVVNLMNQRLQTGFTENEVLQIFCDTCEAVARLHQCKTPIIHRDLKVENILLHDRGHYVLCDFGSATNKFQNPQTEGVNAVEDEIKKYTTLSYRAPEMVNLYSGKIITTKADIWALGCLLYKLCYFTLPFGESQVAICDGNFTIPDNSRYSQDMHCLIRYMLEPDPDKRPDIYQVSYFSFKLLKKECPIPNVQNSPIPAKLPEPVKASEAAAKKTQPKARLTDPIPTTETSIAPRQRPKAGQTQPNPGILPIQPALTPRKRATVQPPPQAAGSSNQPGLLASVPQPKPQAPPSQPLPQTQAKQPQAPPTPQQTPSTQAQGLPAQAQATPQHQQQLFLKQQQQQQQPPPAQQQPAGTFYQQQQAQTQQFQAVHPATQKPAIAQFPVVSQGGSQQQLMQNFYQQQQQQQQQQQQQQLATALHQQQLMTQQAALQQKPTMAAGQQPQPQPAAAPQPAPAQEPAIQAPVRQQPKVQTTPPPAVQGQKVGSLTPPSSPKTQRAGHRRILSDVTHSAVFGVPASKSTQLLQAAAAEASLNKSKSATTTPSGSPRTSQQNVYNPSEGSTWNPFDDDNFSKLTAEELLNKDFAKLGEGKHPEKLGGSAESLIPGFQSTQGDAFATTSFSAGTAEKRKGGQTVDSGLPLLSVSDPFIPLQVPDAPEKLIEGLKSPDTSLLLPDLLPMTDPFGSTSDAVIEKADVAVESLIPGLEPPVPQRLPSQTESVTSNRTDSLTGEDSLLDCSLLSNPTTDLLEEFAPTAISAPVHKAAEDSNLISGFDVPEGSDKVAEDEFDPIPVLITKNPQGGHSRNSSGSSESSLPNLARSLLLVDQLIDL
Chain of Serine/threonine-protein kinase MRCK alpha (Q5VT25 whole entry, canonical isoform): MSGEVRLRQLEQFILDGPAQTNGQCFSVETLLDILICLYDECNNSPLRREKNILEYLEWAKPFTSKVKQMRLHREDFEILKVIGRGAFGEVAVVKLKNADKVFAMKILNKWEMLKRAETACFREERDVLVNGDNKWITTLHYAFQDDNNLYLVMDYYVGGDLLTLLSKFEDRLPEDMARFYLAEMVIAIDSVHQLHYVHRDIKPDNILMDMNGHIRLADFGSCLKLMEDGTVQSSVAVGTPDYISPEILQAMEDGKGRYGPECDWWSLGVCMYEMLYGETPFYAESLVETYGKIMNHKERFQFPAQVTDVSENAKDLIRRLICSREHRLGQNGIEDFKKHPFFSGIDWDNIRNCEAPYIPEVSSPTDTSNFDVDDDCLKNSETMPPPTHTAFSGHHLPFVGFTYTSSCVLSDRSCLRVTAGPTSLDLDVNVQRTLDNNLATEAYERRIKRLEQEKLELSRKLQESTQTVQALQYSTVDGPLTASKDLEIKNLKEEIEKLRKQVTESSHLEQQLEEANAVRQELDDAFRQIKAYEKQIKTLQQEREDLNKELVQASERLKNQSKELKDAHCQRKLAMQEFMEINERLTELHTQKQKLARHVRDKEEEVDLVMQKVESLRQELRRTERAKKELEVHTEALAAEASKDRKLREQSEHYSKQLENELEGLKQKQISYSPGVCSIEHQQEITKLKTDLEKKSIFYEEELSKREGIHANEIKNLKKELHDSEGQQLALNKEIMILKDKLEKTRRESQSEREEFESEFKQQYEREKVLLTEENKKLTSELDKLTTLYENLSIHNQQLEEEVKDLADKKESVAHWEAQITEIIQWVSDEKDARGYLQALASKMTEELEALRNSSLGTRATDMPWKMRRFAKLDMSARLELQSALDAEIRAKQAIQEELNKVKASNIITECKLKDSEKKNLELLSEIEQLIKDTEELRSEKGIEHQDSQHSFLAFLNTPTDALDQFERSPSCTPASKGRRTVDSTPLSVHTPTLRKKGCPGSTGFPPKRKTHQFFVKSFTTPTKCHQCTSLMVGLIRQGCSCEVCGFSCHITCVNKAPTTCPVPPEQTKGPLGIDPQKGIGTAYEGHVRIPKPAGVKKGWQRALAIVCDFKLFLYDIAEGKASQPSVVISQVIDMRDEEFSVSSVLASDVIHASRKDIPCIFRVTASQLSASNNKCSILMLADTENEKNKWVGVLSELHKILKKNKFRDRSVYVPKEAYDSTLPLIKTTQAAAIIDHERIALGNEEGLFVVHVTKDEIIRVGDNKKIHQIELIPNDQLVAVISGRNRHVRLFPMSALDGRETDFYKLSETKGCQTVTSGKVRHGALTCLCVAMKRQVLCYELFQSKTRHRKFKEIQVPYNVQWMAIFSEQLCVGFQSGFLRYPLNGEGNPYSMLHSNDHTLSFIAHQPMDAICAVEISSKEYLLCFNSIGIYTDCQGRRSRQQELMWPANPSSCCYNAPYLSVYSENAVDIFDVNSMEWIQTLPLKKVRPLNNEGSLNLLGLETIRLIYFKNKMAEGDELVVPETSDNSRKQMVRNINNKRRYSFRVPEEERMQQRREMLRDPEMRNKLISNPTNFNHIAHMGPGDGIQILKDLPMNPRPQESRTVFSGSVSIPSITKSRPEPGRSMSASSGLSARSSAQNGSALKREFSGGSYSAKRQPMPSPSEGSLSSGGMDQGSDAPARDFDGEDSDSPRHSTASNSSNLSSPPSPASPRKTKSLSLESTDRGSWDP
Chain of Mitogen-activated protein kinase kinase kinase kinase 5 (Q9Y4K4 whole entry): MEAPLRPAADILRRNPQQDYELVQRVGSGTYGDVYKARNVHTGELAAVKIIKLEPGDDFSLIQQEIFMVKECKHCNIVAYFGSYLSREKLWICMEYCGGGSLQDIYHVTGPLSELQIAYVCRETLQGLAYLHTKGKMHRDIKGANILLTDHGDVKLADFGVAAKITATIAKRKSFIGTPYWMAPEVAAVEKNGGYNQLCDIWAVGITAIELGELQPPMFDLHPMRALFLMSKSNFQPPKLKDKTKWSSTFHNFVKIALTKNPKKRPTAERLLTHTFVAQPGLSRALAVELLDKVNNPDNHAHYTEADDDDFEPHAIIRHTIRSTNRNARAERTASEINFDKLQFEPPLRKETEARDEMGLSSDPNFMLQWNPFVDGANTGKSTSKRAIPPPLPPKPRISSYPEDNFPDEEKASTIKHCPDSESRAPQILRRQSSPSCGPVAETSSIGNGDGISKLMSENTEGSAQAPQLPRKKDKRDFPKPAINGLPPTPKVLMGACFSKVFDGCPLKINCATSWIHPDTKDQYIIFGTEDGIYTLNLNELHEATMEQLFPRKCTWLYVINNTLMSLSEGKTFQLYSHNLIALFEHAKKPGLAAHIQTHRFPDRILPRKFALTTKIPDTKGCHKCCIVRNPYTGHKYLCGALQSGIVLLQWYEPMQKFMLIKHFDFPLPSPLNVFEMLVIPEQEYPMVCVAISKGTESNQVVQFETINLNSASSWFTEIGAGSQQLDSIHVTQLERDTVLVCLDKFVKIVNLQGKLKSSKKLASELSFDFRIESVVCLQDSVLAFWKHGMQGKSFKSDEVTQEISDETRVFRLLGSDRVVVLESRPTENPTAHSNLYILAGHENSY
Chain of Casein kinase I isoform epsilon (P49674 whole entry, canonical isoform): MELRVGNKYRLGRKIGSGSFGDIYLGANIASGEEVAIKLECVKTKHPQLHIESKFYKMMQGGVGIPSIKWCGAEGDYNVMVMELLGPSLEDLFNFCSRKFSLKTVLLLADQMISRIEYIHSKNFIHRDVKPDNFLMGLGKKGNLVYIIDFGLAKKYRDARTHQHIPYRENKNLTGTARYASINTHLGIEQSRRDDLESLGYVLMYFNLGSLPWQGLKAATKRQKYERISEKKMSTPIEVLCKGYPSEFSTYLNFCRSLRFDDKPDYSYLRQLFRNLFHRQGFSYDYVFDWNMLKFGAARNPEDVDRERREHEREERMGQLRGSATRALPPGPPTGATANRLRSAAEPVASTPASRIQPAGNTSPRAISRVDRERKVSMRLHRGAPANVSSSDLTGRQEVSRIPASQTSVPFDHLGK

For `CC[C@@H]1C(=O)N(C)c2cnc(Nc3ccc(C(=O)N[C@H]4CC[C@H](N5CCN(CC6CC6)CC5)CC4)cc3OC)nc2N1C(C)C` [VOLASERTIB], the Kd (on ADP/ATP translocase 2; in experiment [1]; in experiment [2]; in experiment [3]; in experiment [4]; in experiment [5]) was > 30 µM (inactive) throughout. The Kd in experiment [6] and in experiment [7] was > 30 µM (inactive) throughout.
For `Cc1cc(-c2cc(O)ccc2Cl)cc2nnc(Nc3ccc(OCCN4CCCC4)cc3)nc12`, the Kd (at ADP/ATP translocase 2; in experiment [1]; in experiment [2]; in experiment [3]; in experiment [4]; in experiment [5]) was > 30 µM (inactive) throughout. In addition, the values for the Kd in experiment [6] and in experiment [7] were 0.002 µM (active) and > 30 µM (inactive), respectively.
On to `OCCn1cc(-c2cnc3nnn(Cc4ccc5ncccc5c4)c3n2)cn1` [PF-04217903], for which the Kd (at ADP/ATP translocase 2; in experiment [1]; in experiment [2]; in experiment [3]; in experiment [4]; in experiment [5]) was > 30 µM (inactive) in each case. Further, the Kd in experiment [6] and in experiment [7] was > 30 µM (inactive) each time.
Consider `CCn1c(=O)c(-c2cc[nH]n2)cc2c(C)nc(N)nc21` [VOXTALISIB], for which the Kd (on ADP/ATP translocase 2; in experiment [1]; in experiment [2]; in experiment [3]; in experiment [4]; in experiment [5]) was > 30 µM (inactive) each time. The Kd in experiment [6] and in experiment [7] was > 30 µM (inactive) in each case.
Consider `Cn1ncc(Cl)c1-c1cc(C(=O)N[C@H](CN)Cc2cccc(F)c2)sc1Cl` [AFURESERTIB], for which the Kd (at ADP/ATP translocase 2; in experiment [1]; in experiment [2]; in experiment [3]; in experiment [4]; in experiment [5]) was > 30 µM (inactive) throughout. Further, the Kd in experiment [6] and in experiment [7] was > 30 µM (inactive) throughout.
With `Cc1cc2c(F)c(Oc3ncnn4cc(OC[C@@H](C)OC(=O)[C@H](C)N)c(C)c34)ccc2[nH]1` [BRIVANIB ALANINATE], the Kd (on ADP/ATP translocase 2; in experiment [1]; in experiment [2]; in experiment [3]; in experiment [4]; in experiment [5]) was > 30 µM (inactive) throughout. Besides, the Kd in experiment [6] and in experiment [7] was > 30 µM (inactive) each time.
As to `CC[C@H](Nc1ncnc2[nH]cnc12)c1nc2cccc(F)c2c(=O)n1-c1ccccc1` [IDELALISIB], the Kd (on ADP/ATP translocase 2; in experiment [1]; in experiment [2]; in experiment [3]; in experiment [4]; in experiment [5]) was > 30 µM (inactive) each time. Besides, the Kd in experiment [6] and in experiment [7] was > 30 µM (inactive) each time.
As to `COC(=O)N[C@@H](C)CNc1nccc(-c2cn(C(C)C)nc2-c2cc(Cl)cc(NS(C)(=O)=O)c2F)n1` [ENCORAFENIB], the Kd (on ADP/ATP translocase 2; in experiment [1]; in experiment [2]; in experiment [3]; in experiment [4]; in experiment [5]) was > 30 µM (inactive) in each case. The Kd in experiment [6] and in experiment [7] was > 30 µM (inactive) throughout.
Take `O=c1sn(-c2cccc3ccccc23)c(=O)n1Cc1ccccc1` [TIDEGLUSIB]: the Kd (on ADP/ATP translocase 2; in experiment [1]; in experiment [2]; in experiment [3]; in experiment [4]; in experiment [5]) was > 30 µM (inactive) each time. The Kd in experiment [6] and in experiment [7] was > 30 µM (inactive) throughout.
Turning to `COC(=O)[C@@]1(O)C[C@H]2O[C@]1(C)n1c3ccccc3c3c4c(c5c6ccccc6n2c5c31)C(=O)NC4` [K-252A], the Kd on ADP/ATP translocase 2 was > 30 µM (inactive); in experiment [1] it was 0.193 µM (active); in experiment [2], > 30 µM (inactive); in experiment [3], 0.005 µM (active); in experiment [4], > 30 µM (inactive); in experiment [5], > 30 µM (inactive). In addition, the Kd in experiment [6] was 1.27 µM (active); in experiment [7], > 30 µM (inactive).
As to `O=C(c1ccc(F)c(F)c1Nc1ccc(I)cc1F)N1CC(O)([C@@H]2CCCCN2)C1` [COBIMETINIB], the Kd (on ADP/ATP translocase 2; in experiment [1]; in experiment [2]; in experiment [3]; in experiment [4]; in experiment [5]) was > 30 µM (inactive) each time. For the same compound, the Kd in experiment [6] and in experiment [7] was > 30 µM (inactive) in each case.
Consider `C1=C/COCc2cc(ccc2OCCN2CCCC2)Nc2nccc(n2)-c2cccc(c2)COC/1` [PACRITINIB], for which the Kd is > 30 µM (inactive) at ADP/ATP translocase 2; > 30 µM (inactive) in experiment [1]; > 30 µM (inactive) in experiment [2]; 0.042 µM (active) in experiment [3]; > 30 µM (inactive) in experiment [4]; > 30 µM (inactive) in experiment [5]. Also, the Kd in experiment [6] is 0.674 µM (active); in experiment [7] it was > 30 µM (inactive).

A word on the Kd: it is the constant that tells how readily two partners part at equilibrium.
